Earlier results, collected in US20240408573A1, “ACIDIC GAS ADSORBENT AND ACIDIC GAS ADSORPTION DEVICE” (NITTO DENKO CORPORATION, priority 2021, published 2024).

Assays:
[1] = safety index in terms of handling
[2] = test system: rabbits
[3] = safety index in terms of handling; remark: listed apart in the source
[4] = safety index in terms of handling; remark: listed apart in the source

## NCCNCCNCCN [TETA, triethylenetetramine]
[1]
  Mutagenicity test (Ames test): Positive
[2]
  Skin irritation test (rabbit): Strong irritant
[3]
  Fire Service Act: Hazardous material
[4]
  Poisonous and Deleterious Substances Control Act: Deleterious
